From patent publication US20210269859A1, “PATHOGEN AND ANT[…]” (priority 2014, published 2021)
Read-outs that look alike come from different tables or passages of the source.

Columns and labels:
Format in all cases: cell-based
[1] = system: kanamycin resistant E. coli K12 MG1655 strain; settings: 100 μl
Method: (§1) A single E. coli bacterial colony (E. coli K12 MG1655) known to be resistant to kanamycin and a single E. coli bacterial colony (E. coli K12 MG1655) known to be resistant to carbenicillin were separately cultured in LB media for 12-15 hrs until the bacterial cells were in mid-log phase (about 10^8 cells/nil). The culture was then serial diluted to 5×10^2, 5×10^3, 5×10^4, and 5×10^5 cells in LB media containing either 50 μg/ml kanamycin or 100 μg/ml carbenicillin. Resazurin was added to each dilution at a final concentration of 20, 40, or 80 μM in a total reaction volume of 100 μl. Each diluted culture was cultured at 37° C. and fluorescence was measured at wavelength 590 nm at 0, 1, 2, 3, 4, 5, and 6 hrs from the start of culture in the presence of the antibiotic.

[2] = system: kanamycin resistant E. coli K12 MG1655 strain; settings: 10 μl
Method: as §1
The resazurin reduction method was repeated using the kanamycin resistant strain but in a 10 μl total reaction volume and with final cell concentrations of 5×10^1, 5×10^2, 5×10^3, and 5×10^4 cells per reaction. The same final resazurin concentrations (20, 40, or 80 μM), kanamycin concentration, and carbenicillin concentration were used as above. Fluorescence was measured at wavelength 590 nm at 0, 1, 2, 3, 4, 5, 6, and 7 hrs from the start of culture in the presence of the antibiotic.

[3] = system: carbenicillin resistant E. coli K12 MG1655 strain; assay: Resazurin reduction method, 100 μl total reaction volume
Method: as §1

[4] = 50 μg/ml kanamycin or 100 μg/ml carbenicillin, 5×10^2 to 5×10^5 cells, resazurin 20, 40 or 80 μM, 37° C., 0-6 hrs
[5] = higher initial cell concentrations (5×10^3, 5×10^4, 5×10^5 cells)
[6] = lower initial cell concentration (5×10^2 cells)

| SMILES | growth of the strain in the presence of the antibiotic (fluorescence at 590 nm) [1, 4] | growth of the strain in the presence of the antibiotic (fluorescence at 590 nm) ([2]; same kanamycin and carbenicillin concentrations, 5×10^1 to 5×10^4 cells per reaction, resazurin 20, 40 or 80 μM, 0-7 hrs) | growth of the strain in the presence of the antibiotic (fluorescence at 590 nm) [3, 4] | time after initiating the culture at which resistance to the antibiotic could be detected [3, 5] | time after initiating the culture at which resistance to the antibiotic began showing [3, 6] | time after initiating the culture at which resistance to the antibiotic could be detected [1, 5] | time after initiating the culture at which resistance to the antibiotic began showing [1, 6] | time after initiating the culture at which resistance to the antibiotic could be detected ([2]; higher initial cell concentrations (5×10^2, 5×10^3, 5×10^4 cells)) | time after initiating the culture at which resistance to the antibiotic began showing ([2]; lower initial cell concentration (5×10^1 cells)) |
| --- | --- | --- | --- | --- | --- | --- | --- | --- | --- |
| CC1(C)S[C@@H]2[C@H](NC(=O)C(C(=O)O)c3ccccc3)C(=O)N2[C@H]1C(=O)O (stereo partly drawn) [carbenicillin] | slow or no growth | slow or no growth | growth | 1 to 5 h | about 6 hrs |  |  |  |  |
| NC[C@H]1O[C@H](O[C@H]2[C@H](O)[C@@H](O[C@H]3O[C@H](CO)[C@@H](O)[C@H](N)[C@H]3O)[C@H](N)C[C@@H]2N)[C@H](O)[C@@H](O)[C@@H]1O [kanamycin] |  |  |  |  |  | 1 to 5 h | about 6 hrs | 1 to 6 h | about 7 hrs |
